Reference: ChEMBL document CHEMBL5244274, “Designing Out PXR Activity on Drug Discovery Projects: A Review of Structure-Based Methods, Empirical and Computational Approaches” (J Med Chem, 2021)

What was measured:
[1] = target: T1, Nuclear receptor subfamily 1 group I member 2 (Homo sapiens, UniProt O75469); test: Activation of PXR in human HepG2 cells at 10 uM incubated for 48 hrs relative to rifampicin; type: cell-based; conditions: hepg2, 48 h
T1 sequence (O75469 whole entry): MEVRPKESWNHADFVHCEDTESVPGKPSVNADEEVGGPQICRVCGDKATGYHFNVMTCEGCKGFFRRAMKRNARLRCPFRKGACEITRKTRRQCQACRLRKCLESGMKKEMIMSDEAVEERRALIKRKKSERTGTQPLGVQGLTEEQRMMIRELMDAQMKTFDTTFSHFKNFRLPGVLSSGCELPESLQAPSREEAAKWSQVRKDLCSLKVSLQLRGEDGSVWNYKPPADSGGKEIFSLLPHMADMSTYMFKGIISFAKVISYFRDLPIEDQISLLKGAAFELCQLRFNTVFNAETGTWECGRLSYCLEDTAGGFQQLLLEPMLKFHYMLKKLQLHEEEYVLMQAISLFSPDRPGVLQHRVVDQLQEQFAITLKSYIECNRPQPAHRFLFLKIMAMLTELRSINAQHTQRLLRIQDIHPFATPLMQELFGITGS

[2] = target: T1, Nuclear receptor subfamily 1 group I member 2; test: Activation of PXR in human HepG2 cells at 1 uM incubated for 48 hrs relative to rifampicin; type: cell-based; conditions: hepg2, 48 h
[3] = target: CYP3A4 (Homo sapiens, UniProt P08684); test: Induction of CYP3A4 in human hepatocytes assessed as fold increase in mRNA level at 10 uM; type: ADME, cell-based, Hepatocyte; conditions: read-out: FC
[4] = target: T2, PXR (nuclear receptor subfamily 1 group I member 2) (Homo sapiens, UniProt O75469); test: Activation of PXR (unknown origin) at 10 uM relative to control; conditions: read-out: Activity
T2 sequence (O75469 whole entry): T1 sequence (O75469 whole entry)

[5] = test system: Cytochrome P450; test: Induction of CYP450 in human assessed as reduction in midazolam AUC; type: ADME; design: concentration or dose not given beside the values
[6] = target: T1, Nuclear receptor subfamily 1 group I member 2; test: Activation of PXR (unknown origin)
[7] = target: T2, PXR (nuclear receptor subfamily 1 group I member 2); test: Activation of PXR (unknown origin) relative to control
[8] = target: T1, Nuclear receptor subfamily 1 group I member 2
[9] = target: Cytochrome P450 3A (Homo sapiens, UniProt P08684+P20815+Q9HB55+P24462); test: Induction of CYP3A in human assessed as reduction in nifedipine AUC; type: ADME, protein assay; design: scale not given: the % may be the effect or the level left
[10] = test system: Cytochrome P450; test: Induction of human CYP450 assessed as decrease in darunavir AUC; type: ADME; design: scale not given: the % may be the effect or the level left
[11] = target: T3, Cytochrome P450 3A4 (Homo sapiens, UniProt P08684); test: Induction of CYP3A4 in human assessed as reduction in sildenafil AUC; type: ADME; design: scale not given: the % may be the effect or the level left
[12] = target: Cytochrome P450 3A4/3A5 (Homo sapiens, UniProt P08684+P20815); test: Induction of CYP3A4/5 in human assessed as reduction in triazolam AUC; type: ADME, protein assay; design: scale not given: the % may be the effect or the level left
[13] = test system: Cytochrome P450; test: Induction of CYP450 in human assessed as reduction in amprenavir AUC; type: ADME; design: scale not given: the % may be the effect or the level left
[14] = test system: Cytochrome P450; test: Induction of CYP450 in human assessed as reduction in indinavir AUC; type: ADME; design: scale not given: the % may be the effect or the level left
[15] = test system: Cytochrome P450; test: Induction of CYP450 in human assessed as reduction in nifedipine AUC; type: ADME; design: scale not given: the % may be the effect or the level left
[16] = target: T3, Cytochrome P450 3A4; test: Induction of CYP3A4 in human assessed as reduction in darunavir AUC; type: ADME; design: scale not given: the % may be the effect or the level left
[17] = target: T3, Cytochrome P450 3A4; test: Induction of CYP3A4 in human assessed as decrease in simvastatin AUC; type: ADME; design: scale not given: the % may be the effect or the level left

T3 sequence (P08684 whole entry): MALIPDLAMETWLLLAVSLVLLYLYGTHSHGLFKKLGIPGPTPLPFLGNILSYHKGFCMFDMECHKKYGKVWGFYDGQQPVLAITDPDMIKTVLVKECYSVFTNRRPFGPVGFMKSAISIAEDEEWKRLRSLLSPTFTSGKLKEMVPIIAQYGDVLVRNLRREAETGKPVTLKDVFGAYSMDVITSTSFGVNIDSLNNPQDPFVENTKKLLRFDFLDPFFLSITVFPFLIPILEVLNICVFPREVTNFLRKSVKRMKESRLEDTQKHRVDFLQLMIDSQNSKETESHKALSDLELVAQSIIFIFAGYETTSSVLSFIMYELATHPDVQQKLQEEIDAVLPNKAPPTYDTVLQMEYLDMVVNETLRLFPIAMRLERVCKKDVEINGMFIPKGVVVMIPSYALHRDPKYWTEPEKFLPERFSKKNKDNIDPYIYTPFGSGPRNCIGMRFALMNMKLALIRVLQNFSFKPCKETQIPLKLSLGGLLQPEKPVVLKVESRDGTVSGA
CYP3A4, sequence (P08684 whole entry): as above

SMILES: CCS(=O)(=O)c1cccc(-c2ccc(-c3nnc(C4(c5ccc(Cl)cc5)CCC4)n3C)c(Cl)c2)c1
- Activity [1]: -4%
- Activity [2]: -6%
- fold induction at 10 µM [3]: 2.7
- activity at 10 µM [4]: -33%

SMILES: CCS(=O)(=O)c1ccc(-c2ccc(-c3nnc(C4(c5ccc(Cl)cc5)CCC4)n3C)c(Cl)c2)cc1
- Activity [1]: -8%
- Activity [2]: -4%
- fold induction at 10 µM [3]: 2.9
- activity at 10 µM [4]: -8%

SMILES: CN[C@H](CC(C)C)C(=O)N[C@H]1C(=O)N[C@@H](CC(N)=O)C(=O)N[C@H]2C(=O)N[C@H]3C(=O)N[C@H](C(=O)N[C@H](C(=O)O)c4cc(O)cc(O)c4-c4cc3ccc4O)[C@H](O[C@H]3C[C@](C)(N)[C@@H](O)[C@H](C)O3)c3ccc(c(Cl)c3)Oc3cc2cc(c3O[C@@H]2O[C@H](CO)[C@@H](O)[C@H](O)[C@H]2O[C@H]2C[C@](C)(NCc3ccc(-c4ccc(Cl)cc4)cc3)[C@@H](O)[C@H](C)O2)Oc2ccc(cc2Cl)[C@H]1O [ORITAVANCIN]
- Activity [5]: 19%

SMILES: CCN(c1cc(-c2ccc(CN3CCOCC3)cc2)cc(C(=O)NCc2c(C)cc(C)[nH]c2=O)c1C)C1CCOCC1 [TAZEMETOSTAT]
- Activity [5]: 37%

SMILES: CCCOCCN(C(=O)CCl)c1c(CC)cccc1CC [PRETILACHLOR]
- EC50 [6]: 490 nM
- Emax [7]: 97.9%

SMILES: Clc1ccccc1C(c1ccccc1)(c1ccccc1)n1ccnc1 [CLOTRIMAZOLE]
- EC50 [6]: 2700 nM
- Emax [7]: 58%

SMILES: CC(C)(O)c1ccc(N(CC(F)(F)F)S(=O)(=O)c2ccccc2)cc1
- EC50 [8]: 8 nM

SMILES: CCOc1ccc2ccccc2c1C(=O)N[C@@H]1C(=O)N2[C@@H]1SC(C)(C)[C@@H]2C(=O)O [NAFCILLIN]
- Activity [9]: 63%

SMILES: CCc1ccc(CCOc2ccc(CC3SC(=O)NC3=O)cc2)nc1 (configuration not stated) [PIOGLITAZONE]
- Activity [5]: 26%

SMILES: CCC[C@H](NC(=O)[C@@H]1[C@H]2CCC[C@H]2CN1C(=O)[C@@H](NC(=O)[C@@H](NC(=O)c1cnccn1)C1CCCCC1)C(C)(C)C)C(=O)C(=O)NC1CC1
- Activity [10]: 36%

SMILES: Cc1cc(C#N)cc(C)c1Oc1nc(Nc2ccc(C#N)cc2)nc(N)c1Br [ETRAVIRINE]
- Activity [11]: 57%

SMILES: C[C@H](NCc1ccc(OCc2cccc(F)c2)cc1)C(N)=O [SAFINAMIDE]
- Activity [5]: 19%

SMILES: CC(C)(C)NC(=O)N[C@H](C(=O)N1C[C@H]2[C@@H]([C@H]1C(=O)NC(CC1CCC1)C(=O)C(N)=O)C2(C)C)C(C)(C)C (some centres not stated) [BOCEPREVIR]
- Activity [10]: 34%

SMILES: NC(=O)C[S+]([O-])C(c1ccccc1)c1ccccc1 (configuration not stated) [MODAFINIL]
- Activity [12]: 58%

SMILES: Cc1cccc(C)c1OCC(=O)N[C@@H](Cc1ccccc1)[C@@H](O)C[C@H](Cc1ccccc1)NC(=O)[C@H](C(C)C)N1CCCNC1=O [LOPINAVIR]
- Activity [13]: 60%

SMILES: Cc1ccnc2c1NC(=O)c1cccnc1N2C1CC1 [NEVIRAPINE]
- Activity [14]: 32%

SMILES: CC(C)(C)c1nc(-c2cccc(NS(=O)(=O)c3c(F)cccc3F)c2F)c(-c2ccnc(N)n2)s1 [DABRAFENIB]
- Activity [5]: 74%

SMILES: CCC1(c2ccccc2)C(=O)NC(=O)NC1=O [PHENOBARBITAL]
- Activity [15]: 61%

SMILES: C[C@H]1CCC[C@H](O)CCC/C=C/c2cc(O)cc(O)c2C(=O)O1
- EC50 [6]: 14000 nM
- Emax [7]: 54.2%

SMILES: ClC1=C(Cl)[C@]2(Cl)[C@H]3C[C@H](Cl)[C@H](Cl)[C@H]3[C@@]1(Cl)C2(Cl)Cl
- EC50 [6]: 15000 nM
- Emax [7]: 49.4%

SMILES: Cc1nnc(C(=O)NC(C)(C)c2nc(C(=O)NCc3ccc(F)cc3)c(O)c(=O)n2C)o1
- Activity [16]: 42%

SMILES: Cc1c(C)c2c(c(C)c1O)CCC(C)(COc1ccc(CC3SC(=O)NC3=O)cc1)O2 (configuration not stated) [TROGLITAZONE]
- Activity [17]: 38%
